Reference: paper PMC10855533, “Saturation Transfer Difference NMR and Molecular Docking Interaction Study of Aralkyl-Thiodigalactosides as Potential Inhibitors of the Human-Galectin-3 Protein” (International Journal of Molecular Sciences, 2024)

Legend:
[1] = for Aggregation during the series of STD titration experiments: up to 1:1 reference and competition ligand ratio (4 mM)
Method: We chose the TDG (5), a well-known, moderately bound ligand of hGal-3, as a reference ligand for our competition STD ^1H NMR experiments. As a first step, we recorded an STD ^1H NMR spectrum on the starting sample, which always contained 40 μM hGal-3 protein and 4 mM TDG (1:100 protein reference ligand ratio). Then, the titration was started by adding the synthesized competitor ligand into the NMR sample step-by-step, and we performed STD experiments on each solution composition. […] Thus, the 100% STD effect was determined as the H-4 intensity value of TDG (5) in the initial sample state, and its relative decrease caused by adding the competitor ligand in increasing concentration was measured in each titration step (Table 1).
All ^1H STD NMR experiments were recorded on a Bruker Avance Neo 700 MHz spectrometer equipped with a 5 mm z-gradient (TCI) triple-tuned Prodigy cryoprobe. The measurements were performed at a temperature of 303 K. The data acquisition and processing were performed with TopSpin 3.6.2 and 4.1.1 software. Samples were prepared in 10 mM phosphate buffer solution (140 mM NaCl/KCl, pH = 7.4) in D2O. The initial sample contained 40 μM of hGal-3 protein and 4 mM of compound 5 for each experiment. Competitor ligands were added to the initial samples from stock solutions of different concentrations so that the smallest volume (2 μL) could be added in each titration step. […] The protein resonances were selectively irradiated in competition STD experiments by Eburp (90°) excitation pulses, with a length of 50 ms each with a maximum B1 field strength of 75 Hz yielding a total irradiation time of 3 s. The off-resonance pulse frequency was set to −40 ppm and the on-resonance frequency to 0 ppm. Off- and on-resonance data were recorded at alternate scans, and the corresponding FIDs were collected in separate memories of subsequent processing files, and STD spectra were produced after subtraction of the two subspectra. Competition STD spectra were typically recorded with 1200 repetitions (NS = 8, L4 = 150) to ensure an adequate signal-to-noise ratio for the analysis.

hGal-3 protein = hGal-3 protein (Homo sapiens, UniProt P17931); assay: Competition STD 1H NMR titration against reference ligand TDG (5); format: binding; conditions: for Kd: calculated from IC50 with Kd(ref.) of TDG and Lref 4 mM (Equation 2); for Kd / Relative STD Intensity of H-4 of TDG titrated by competitor: 303 K; for Relative STD Intensity of H-4 of TDG titrated by competitor: 40 μM hGal-3, 4 mM TDG (5); for IC50: competitor concentration for 50% displacement of 4 mM TDG (5), 40 μM hGal-3, exponential fit; for Relative Affinity, Kd (ref.)/Kd (comp.): referenced to TDG (5), times stronger binding than TDG
From the text: The competition STD NMR method provides an opportunity to characterize moderately and strongly bound protein–ligand systems (KD = 10^−6 M − 10^−9 M), where the determination is not feasible in direct STD experiment due to kinetic reasons. In the competition experiment, the concentration of the target protein and the reference ligand is kept at a constant level. An STD spectrum of the starting sample state is obtained. Then, by adding the competitive ligand in increasing concentration step-by-step, the resonance signal changes in the STD spectra can be monitored. If the competitor ligand binds strongly to the target protein, a decrease in the STD signal intensities of the reference ligand is observed. If the IC50 value is reached before the equimolar ratio of the reference and the competitor ligand, it can be concluded that the competitor binds more strongly than the selected reference compound to the protein. The strength of the interaction can be quantified by the determination of the dissociation constant value (KD).
By plotting the relative STD ^1H NMR signal intensities of the H-4 proton of the reference compound (5) as a function of the concentration of the given competitor ligand, the IC50 values can be determined (Figure 4). The IC50 value gives the concentration of the competitor ligand required to halve the signal intensity of the reference ligand in the STD spectrum, so it provides the competitor concentration required for 50% displacement of the reference compound (5). IC50 values were calculated based on the equation of the exponential function fitted to the points measured.
The dissociation constant of the interaction was calculated according to the following equation (Equation (1)):(1) Kd(ref.)=Lref×Kd(comp.)/IC50−Kd(comp.)
By rearranging this equation, the Kd value of the competitor ligand (Kd(comp.)) can be obtained (Equation (2)):(2) Kd(comp.)=Kd(ref.)×IC50/Lref+Kd(ref.) where Kd(ref.) refers to the dissociation constant of the reference ligand, Lref is the concentration of the reference ligand, Kd(comp.) is the dissociation constant of the competitor compound, and IC50 is the concentration of the competitor compound at half-signal intensity.

hGal-3 = molecular target: hGal-3; parameters: method as in PMID 32955737; conditions: reference ligand TDG, ITC; cited from earlier work

Chain of hGal-3 protein (P17931 whole entry): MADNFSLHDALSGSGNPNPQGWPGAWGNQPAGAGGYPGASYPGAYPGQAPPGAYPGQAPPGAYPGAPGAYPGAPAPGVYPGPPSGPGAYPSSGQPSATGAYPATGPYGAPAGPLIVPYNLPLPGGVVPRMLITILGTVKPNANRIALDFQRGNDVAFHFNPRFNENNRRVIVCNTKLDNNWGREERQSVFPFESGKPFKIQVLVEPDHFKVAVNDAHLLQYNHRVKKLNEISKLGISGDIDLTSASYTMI

**Q.** For `OC[C@H]1O[C@@H](S[C@@H]2O[C@H](CO)[C@H](O)[C@H](OCc3ccc4ccccc4c3)[C@H]2O)[C@H](O)[C@@H](OCc2ccc3ccccc3c2)[C@H]1O` [Compound 2, Bis-{3-O-[(Naphtalene-2-yl)Methyl]-β-D-Galactopyranosyl}-Sulfane], which Solubility ([1]; pH 7.4) is on record?
**A.** uncertain

**Q.** What about the Kd (hGal-3 protein) of the same molecule?
**A.** 0.55 µM

**Q.** What about the “Relative STD Intensity of H-4 of TDG titrated by competitor” value (“Relative STD Intensity” below) (hGal-3 protein; competitor 10 μM) of the same molecule?
**A.** 86%

**Q.** What about the “Relative STD Intensity” value (hGal-3 protein; competitor 20 μM) of the same molecule?
**A.** 68%

**Q.** What about the “Relative STD Intensity” value (hGal-3 protein; competitor 30 μM) of the same molecule?
**A.** 59%

**Q.** What about the “Relative STD Intensity” value (hGal-3 protein; competitor 40 μM) of the same molecule?
**A.** 55%

**Q.** And the “Relative STD Intensity” value (hGal-3 protein; competitor 50 μM)?
**A.** 37%

**Q.** What about the “Relative STD Intensity” value (hGal-3 protein; competitor 60 μM) of the same molecule?
**A.** 33%

**Q.** What about the “Relative STD Intensity” value (hGal-3 protein; competitor 100 μM) of the same molecule?
**A.** 24%

**Q.** What about the IC50 (hGal-3 protein) of the same molecule?
**A.** 43 µM

**Q.** What about the “Relative Affinity, Kd (ref.)/Kd (comp.)” value (hGal-3 protein) of the same molecule?
**A.** 94

**Q.** For `OC[C@H]1O[C@@H](S[C@@H]2O[C@H](CO)[C@H](O)[C@H](OCc3ccc4ccccc4n3)[C@H]2O)[C@H](O)[C@@H](OCc2ccc3ccccc3n2)[C@H]1O` [Compound 1, Bis-{3-O-[(Quinoline-2-yl)Methyl]-β-D-Galactopyranosyl}-Sulfane], which “Aggregation during the series of STD titration experiments” value [1] is on record?
**A.** did not observe any aggregation

**Q.** What about the Kd (hGal-3 protein) of the same molecule?
**A.** 1.7 µM

**Q.** And the “Relative STD Intensity” value (hGal-3 protein; competitor 40 μM)?
**A.** 78%

**Q.** What about the “Relative STD Intensity” value (hGal-3 protein; competitor 80 μM) of the same molecule?
**A.** 65%

**Q.** And the “Relative STD Intensity” value (hGal-3 protein; competitor 100 μM)?
**A.** 61%

**Q.** And the “Relative STD Intensity” value (hGal-3 protein; competitor 250 μM)?
**A.** 33%

**Q.** And the “Relative STD Intensity” value (hGal-3 protein; competitor 300 μM)?
**A.** 24%

**Q.** What about the “Relative STD Intensity” value (hGal-3 protein; competitor 4000 μM) of the same molecule?
**A.** 0%

**Q.** What about the IC50 (hGal-3 protein) of the same molecule?
**A.** 134 µM

**Q.** And the “Relative Affinity, Kd (ref.)/Kd (comp.)” value (hGal-3 protein)?
**A.** 30

**Q.** With `OC[C@H]1O[C@@H](S[C@@H]2O[C@H](CO)[C@H](O)[C@H](O)[C@H]2O)[C@H](O)[C@@H](O)[C@H]1O` [Compound 5, Bis-(β-D-Galactopyranosyl)-Sulfane, reference compound] as the molecule, how does the Kd (hGal-3) read?
**A.** 51.4 µM

**Q.** And the “Relative Affinity, Kd (ref.)/Kd (comp.)” value (hGal-3 protein)?
**A.** 1

**Q.** Which “Aggregation during the series of STD titration experiments” value [1] does the source give for `OC[C@H]1O[C@@H](S[C@@H]2O[C@H](CO)[C@H](O)[C@H](OCc3ccccc3)[C@H]2O)[C@H](O)[C@@H](OCc2ccccc2)[C@H]1O` [Compound 3, Bis-(3-O-Benzyl-β-D-Galactopyranosyl)-Sulfane] here?
**A.** did not observe any aggregation

**Q.** And the Kd (hGal-3 protein)?
**A.** 2.19 µM

**Q.** What about the “Relative STD Intensity” value (hGal-3 protein; competitor 40 μM) of the same molecule?
**A.** 85%

**Q.** What about the “Relative STD Intensity” value (hGal-3 protein; competitor 80 μM) of the same molecule?
**A.** 75%

**Q.** What about the “Relative STD Intensity” value (hGal-3 protein; competitor 120 μM) of the same molecule?
**A.** 64%

**Q.** What about the “Relative STD Intensity” value (hGal-3 protein; competitor 160 μM) of the same molecule?
**A.** 50%

**Q.** And the “Relative STD Intensity” value (hGal-3 protein; competitor 250 μM)?
**A.** 31%

**Q.** What about the “Relative STD Intensity” value (hGal-3 protein; competitor 400 μM) of the same molecule?
**A.** 28%

**Q.** What about the “Relative STD Intensity” value (hGal-3 protein; competitor 4000 μM) of the same molecule?
**A.** 0%

**Q.** What about the IC50 (hGal-3 protein) of the same molecule?
**A.** 172 µM

**Q.** And the “Relative Affinity, Kd (ref.)/Kd (comp.)” value (hGal-3 protein)?
**A.** 24
